Test results as given in US20240391936A1, “TETRAHYDROTHIENO PYRIDINE DERIVATIVES AS DDRS INHIBITORS” (CHIESI FARMACEUTICI S.P.A., priority 2021, published 2024).

Assays:
DDR1 [1] = biological target: T1, DDR1 (Homo sapiens, UniProt Q08345); assay: DDR1 binding assay (LanthaScreen Europium Kinase Binding assay); set-up: purchased Carna Biosciences; settings: binding assay, 5 nM DDR1, 20 nM Kinase Tracer 178; Ki from IC50 by Cheng-Prusoff; read-out: Ki DDR1
Procedure, shortened: (§1)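 Compounds incubated 1 h at room temperature with 5 nM kinase, Kinase Tracer 178 (20 nM for DDR1, 10 nM for DDR2) and 2 nM Eu-anti-GST antibody in pH 7.5 HEPES/MgCl2/EGTA/BRIJ35 buffer. TR-FRET 665/615 nm ratio read after 340 nm excitation; IC50 from 4-parameter fit, converted to Ki by Cheng-Prusoff.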

DDR1 [2] = biological target: T1, DDR1; assay: DDR1 cell based assay (PathHunter U2OS DDR1 assay); set-up: host or cells: U2OS-DDR1 (PathHunter); settings: U2OS-DDR1 cells, bovine Type II Collagen 20 μg/ml
Procedure, shortened: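 U2OS-DDR1 PathHunter cells preincubated 30 min with compound, then stimulated overnight at 37 °C with 20 μg/ml bovine type II collagen. Luminescent complementation signal read after 1 h detection at room temperature; normalized to vehicle (0%) and collagen-only (100%) controls, IC50 from variable-slope sigmoidal fit.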

DDR2 = biological target: T2, DDR2 (Homo sapiens, UniProt Q16832); assay: DDR2 binding assay (LanthaScreen Europium Kinase Binding assay); set-up: purchased Life Technologies; settings: binding assay, 5 nM DDR2, 10 nM Kinase Tracer 178; Ki from IC50 by Cheng-Prusoff; read-out: Ki DDR2
T2 sequence (Q16832 22-855): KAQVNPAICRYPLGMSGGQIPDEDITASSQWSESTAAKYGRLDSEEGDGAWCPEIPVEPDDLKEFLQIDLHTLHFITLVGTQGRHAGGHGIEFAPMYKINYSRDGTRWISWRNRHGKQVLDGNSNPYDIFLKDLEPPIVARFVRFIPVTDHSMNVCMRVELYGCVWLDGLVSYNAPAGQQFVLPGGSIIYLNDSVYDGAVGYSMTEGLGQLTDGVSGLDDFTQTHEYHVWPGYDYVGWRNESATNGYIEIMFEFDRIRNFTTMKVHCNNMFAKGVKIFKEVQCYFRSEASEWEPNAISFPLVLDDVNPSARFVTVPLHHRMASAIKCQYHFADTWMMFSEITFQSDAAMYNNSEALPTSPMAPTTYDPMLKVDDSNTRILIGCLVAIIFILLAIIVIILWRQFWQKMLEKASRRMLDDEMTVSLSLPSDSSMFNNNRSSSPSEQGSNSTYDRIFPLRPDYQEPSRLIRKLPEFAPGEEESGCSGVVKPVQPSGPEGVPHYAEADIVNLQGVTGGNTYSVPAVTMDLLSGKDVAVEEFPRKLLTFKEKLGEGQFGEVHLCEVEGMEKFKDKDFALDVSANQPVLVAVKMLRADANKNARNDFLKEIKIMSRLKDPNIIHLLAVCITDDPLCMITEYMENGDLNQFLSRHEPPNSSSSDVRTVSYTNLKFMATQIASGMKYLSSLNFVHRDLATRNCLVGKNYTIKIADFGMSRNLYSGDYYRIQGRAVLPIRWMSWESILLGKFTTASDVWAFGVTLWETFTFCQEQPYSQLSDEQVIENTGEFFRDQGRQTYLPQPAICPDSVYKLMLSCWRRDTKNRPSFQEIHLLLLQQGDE
Procedure, shortened: as §1

T1 sequence (Q08345 19-913): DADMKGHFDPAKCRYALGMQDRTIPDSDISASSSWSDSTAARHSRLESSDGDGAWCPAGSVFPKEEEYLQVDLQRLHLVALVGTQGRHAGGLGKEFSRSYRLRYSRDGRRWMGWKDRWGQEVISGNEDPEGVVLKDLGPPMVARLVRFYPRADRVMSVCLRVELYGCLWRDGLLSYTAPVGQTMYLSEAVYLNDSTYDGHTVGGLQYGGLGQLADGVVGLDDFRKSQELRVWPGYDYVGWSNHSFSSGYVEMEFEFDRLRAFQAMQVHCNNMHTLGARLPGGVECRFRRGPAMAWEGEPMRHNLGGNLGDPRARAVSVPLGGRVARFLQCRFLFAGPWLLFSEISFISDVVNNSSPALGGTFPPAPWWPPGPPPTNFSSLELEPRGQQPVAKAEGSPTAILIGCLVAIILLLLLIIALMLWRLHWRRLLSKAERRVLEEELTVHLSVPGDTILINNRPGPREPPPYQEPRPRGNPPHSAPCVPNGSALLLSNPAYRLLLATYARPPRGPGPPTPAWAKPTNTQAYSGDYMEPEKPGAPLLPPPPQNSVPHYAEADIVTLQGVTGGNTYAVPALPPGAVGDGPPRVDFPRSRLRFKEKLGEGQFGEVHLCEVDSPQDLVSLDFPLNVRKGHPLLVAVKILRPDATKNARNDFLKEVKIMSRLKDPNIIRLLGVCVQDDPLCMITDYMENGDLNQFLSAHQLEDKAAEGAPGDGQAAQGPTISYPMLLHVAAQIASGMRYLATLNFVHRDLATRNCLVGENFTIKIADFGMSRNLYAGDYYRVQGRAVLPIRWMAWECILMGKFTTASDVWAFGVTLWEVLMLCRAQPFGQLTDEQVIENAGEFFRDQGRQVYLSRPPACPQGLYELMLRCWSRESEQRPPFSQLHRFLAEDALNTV

| Ki (DDR1 [1]) [nM] | IC50 (DDR1 [2]) [nM] | Ki (DDR2) [nM] | SMILES |
| --- | --- | --- | --- |
| < 25 | < 25 | < 25 | CC(C)(C)c1cncc(NC(=O)c2csc3c2CCN(C(=O)c2cnc4ccccn24)C3)c1 [Example 117, N-(5-(tert-butyl)pyridin-3-yl)-6-(imidazo[1,2-a]pyridine-3-carbonyl)-4,5,6,7-tetrahydrothieno[2,3-c]pyridine-3-carboxamide] |
| < 25 | < 25 | < 25 | O=C(Nc1cccc(C(F)(F)F)c1)c1csc2c1CCN(Cc1cnn3cccnc13)C2 [Example 89, 6-(pyrazolo[1,5-a]pyrimidin-3-ylmethyl)-N-(3-(trifluoromethyl)phenyl)-4,5,6,7-tetrahydrothieno[2,3-c]pyridine-3-carboxamide] |
| < 25 | < 25 | < 25 | O=C(Nc1cc(N2CCOCC2)cc(C(F)(F)F)c1)c1csc2c1CCN(C(=O)c1cnn3ccncc13)C2 [Example 182, N-(3-morpholino-5-(trifluoromethyl)phenyl)-6-(pyrazolo[1,5-a]pyrazine-3-carbonyl)-4,5,6,7-tetrahydrothieno[2,3-c]pyridine-3-carboxamide] |
| < 25 | 50 to 80 | < 25 | O=C(Nc1nccc(C(F)(F)F)n1)c1csc2c1CCN(C(=O)c1cnc3ccccn13)C2 [Example 30, 6-(imidazo[1,2-a]pyridine-3-carbonyl)-N-(4-(trifluoromethyl)pyrimidin-2-yl)-4,5,6,7-tetrahydrothieno[2,3-c]pyridine-3-carboxamide] |
| < 25 | 50 to 80 | < 25 | O=C(Nc1ccc(CN2CCCC2)c(C(F)(F)F)c1)c1csc2c1CCN(C(=O)c1cnc3ccccn13)C2 [Example 22, 6-(imidazo[1,2-a]pyridine-3-carbonyl)-N-(4-(pyrrolidin-1-ylmethyl)-3-(trifluoromethyl)phenyl)-4,5,6,7-tetrahydrothieno[2,3-c]pyridine-3-carboxamide] |
| < 25 | 50 to 80 | < 25 | CN1CCN(c2cc(NC(=O)c3csc4c3CCN(C(=O)c3cnn5ccncc35)C4)cc(C(F)(F)F)c2)CC1 [Example 178, N-(3-(4-methylpiperazin-1-yl)-5-(trifluoromethyl)phenyl)-6-(pyrazolo[1,5-a]pyrazine-3-carbonyl)-4,5,6,7-tetrahydrothieno[2,3-c]pyridine-3-carboxamide] |
| < 25 | 25 to 50 | < 25 | CC(C)(C)c1cc(NC(=O)c2csc3c2CCN(C(=O)c2cnc4ccccn24)C3)no1 [Example 33, N-(5-(tert-butyl)isoxazol-3-yl)-6-(imidazo[1,2-a]pyridine-3-carbonyl)-4,5,6,7-tetrahydrothieno[2,3-c]pyridine-3-carboxamide] |
| < 25 | < 25 | < 25 | O=C(Nc1ccc(OCC2COC2)c(C(F)(F)F)c1)c1csc2c1CCN(C(=O)c1cnc3ccccn13)C2 [Example 14, 6-(imidazo[1,2-a]pyridine-3-carbonyl)-N-(4-(oxetan-3-ylmethoxy)-3-(trifluoromethyl)phenyl)-4,5,6,7-tetrahydrothieno[2,3-c]pyridine-3-carboxamide] |
| < 25 | < 25 | < 25 | CC1c2scc(C(=O)Nc3cccc(C(F)(F)F)c3)c2CCN1Cc1cnc2[nH]ccc2c1 (single isomer, unassigned) [Example 107, 6-((1H-pyrrolo[2,3-b]pyridin-5-yl)methyl)-7-methyl-N-(3-(trifluoromethyl)phenyl)-4,5,6,7-tetrahydrothieno[2,3-c]pyridine-3-carboxamide] |
| < 25 | 25 to 50 | < 25 | O=C(Nc1cncc(OC(F)F)c1)c1csc2c1CCN(C(=O)c1cnc3ccccn13)C2 [Example 118, N-(5-(difluoromethoxy)pyridin-3-yl)-6-(imidazo[1,2-a]pyridine-3-carbonyl)-4,5,6,7-tetrahydrothieno[2,3-c]pyridine-3-carboxamide] |
| < 25 | < 25 | < 25 | O=C(Nc1ccc(CO)c(C(F)(F)F)c1)c1csc2c1CCN(C(=O)c1cnc3ccccn13)C2 [Example 132, N-(4-(hydroxymethyl)-3-(trifluoromethyl)phenyl)-6-(imidazo[1,2-a]pyridine-3-carbonyl)-4,5,6,7-tetrahydrothieno[2,3-c]pyridine-3-carboxamide] |
| < 25 | < 25 | < 25 | CN(CCO)Cc1cc(NC(=O)c2csc3c2CCN(C(=O)c2cnc4ccccn24)C3)cc(C(F)(F)F)c1 [Example 57, N-(3-(((2-hydroxyethyl)(methyl)amino)methyl)-5-(trifluoromethyl)phenyl)-6-(imidazo[1,2-a]pyridine-3-carbonyl)-4,5,6,7-tetrahydrothieno[2,3-c]pyridine-3-carboxamide] |
| < 25 | 50 to 80 | < 25 | CN(C)Cc1ccc(NC(=O)c2csc3c2CCN(C(=O)c2cnn4ccncc24)C3)cc1C(F)(F)F [Example 171, N-(4-((dimethylamino)methyl)-3-(trifluoromethyl)phenyl)-6-(pyrazolo[1,5-a]pyrazine-3-carbonyl)-4,5,6,7-tetrahydro thieno[2,3-c]pyridine-3-carboxamide] |
| < 25 | 25 to 50 | < 25 | Cc1n[nH]c2ncc(CN3CCc4c(C(=O)Nc5cc(C6CC6)nn5C)csc4C3)cc12 [Example 146, N-(3-cyclopropyl-1-methyl-1H-pyrazol-5-yl)-6-((3-methyl-1H-pyrazolo[3,4-b]pyridin-5-yl)methyl)-4,5,6,7-tetrahydrothieno[2,3-c]pyridine-3-carboxamide] |
| < 25 | 25 to 50 | < 25 | CC(C)(C)c1cc(NC(=O)c2csc3c2CCN(C(=O)c2cnc4ccccn24)C3)ccn1 [Example 37, N-(2-(tert-butyl)pyridin-4-yl)-6-(imidazo[1,2-a]pyridine-3-carbonyl)-4,5,6,7-tetrahydrothieno[2,3-c]pyridine-3-carboxamide] |
| < 25 | 50 to 80 | < 25 | Cn1nc(C2(C(F)(F)F)CC2)cc1NC(=O)c1csc2c1CCN(C(=O)c1cnc3ccccn13)C2 [Example 114, 6-(imidazo[1,2-a]pyridine-3-carbonyl)-N-(1-methyl-3-(1-(trifluoromethyl)cyclopropyl)-1H-pyrazol-5-yl)-4,5,6,7-tetrahydrothieno[2,3-c]pyridine-3-carboxamide] |
| < 25 | 50 to 80 | < 25 | O=C(Nc1cccc(C(F)(F)F)c1)c1csc2c1CCN(Cc1cnc3cccnn13)C2 [Example 87, 6-(imidazo[1,2-b]pyridazin-3-ylmethyl)-N-(3-(trifluoromethyl)phenyl)-4,5,6,7-tetrahydrothieno[2,3-c]pyridine-3-carboxamide] |
| < 25 | 25 to 50 | < 25 | CN1CC=C(c2ccc3ncc(C(=O)N4CCc5c(C(=O)Nc6cccc(C(F)(F)F)c6)csc5C4)n3c2)CC1 [Example 167, 6-(6-(1-methyl-1,2,3,6-tetrahydropyridin-4-yl)imidazo[1,2-a]pyridine-3-carbonyl)-N-(3-(trifluoromethyl)phenyl)-4,5,6,7-tetrahydrothieno[2,3-c]pyridine-3-carboxamide] |
| < 25 | 50 to 80 | 25 to 50 | CN(C)C1CCN(Cc2cc(NC(=O)c3csc4c3CCN(C(=O)c3cnc5ccccn35)C4)cc(C(F)(F)F)c2)CC1 [Example 48, N-(3-((4-(dimethylamino)piperidin-1-yl)methyl)-5-(trifluoromethyl)phenyl)-6-(imidazo[1,2-a]pyridine-3-carbonyl)-4,5,6,7-tetrahydrothieno[2,3-c]pyridine-3-carboxamide] |
| < 25 | 25 to 50 | < 25 | CN(C)Cc1ccc(NC(=O)c2csc3c2CCN(C(=O)c2cnc4ccccn24)C3)cc1C(F)(F)F [Example 27] |
